Structures can show the parent of a compound that is named as a salt.
Legend:
MCF-10A = assay: MTT assay, MCF-10A non-cancerous cells; assay type: cell-based, human; details: non-cancerous epithelial breast cells, 48 h incubation
Protocol: (§1) The non-cancerous cell line MCF-10A (human epithelial breast cells) was cultured in a DMEM F12 medium supplemented with 10% FBS (Invitrogen, Carlsbad, CA, USA), 1× HyClone™ Antibiotic/Antimycotic Solution (GE Healthcare, Piscataway, NJ, USA), insulin, hEGF, and hydrocortisone. The BJ-5ta cells (human dermal fibroblasts) were cultured in a DMEM-M199 4:1 medium mixture, supplemented with 10% FBS and hygromycin B (0.01 mg/mL). The cells were maintained under standard conditions with an atmosphere containing 5% CO2 at 37 °C. Cell viability, estimated by trypan blue exclusion, was consistently greater than 95% before each experiment.
(§2) To evaluate the IC50 (half-maximal inhibitory concentration) and confirm the antiproliferative activity of the tested substances, we employed the colorimetric MTT assay (3-(4,5-dimethylthiazol-2-yl)-2,5-diphenyltetrazolium bromide) (Sigma-Aldrich Chemie, Steinheim, Germany). The cell lines were seeded in 96-well plates at a density of 5 × 10^3 to 10 × 10^3 cells per well. After 24 h, the tested substances, dissolved in the cultivation medium, were added to the cells at final concentrations of 5, 10, 20, and 50 µmol/L. The cells were then incubated for 48 h under standard cultivation conditions. Following the incubation period, MTT was added to each well. The MTT was metabolized by the cells into insoluble formazan crystals, which were subsequently dissolved by adding 100 µL of 10% SDS. After another 24 h, the absorbance was measured at a wavelength of 540 nm using the automated Cytation™ 3 Cell Imaging Multi-Mode Reader (Biotek, Winooski, VT, USA). The experiments were performed in at least three independent repetitions. IC50 values were calculated using a nonlinear regression method.

Bj-5ta = assay: MTT assay, BJ-5ta non-cancerous fibroblasts; assay type: cell-based, human; details: non-cancerous dermal fibroblasts, 48 h incubation
Protocol: as §1, §2

PATU = assay: MTT assay, PATU 8902; assay type: cell-based, human; details: pancreas adenocarcinoma, 48 h incubation
Protocol: (§3) The human cancer cell lines HeLa (cervical adenocarcinoma), HCT116 (colorectal adenocarcinoma), A2780 (human ovarian adenocarcinoma), A2780cis (human ovarian adenocarcinoma cisplatin-resistant), Jurkat (acute T-lymphoblastic leukemia), and Hep G2 (hepatocellular carcinoma) were cultured in an RPMI 1640 growth medium (Biosera, Kansas City, MO, USA). The cancer cell lines MDA-MB-231 (triple-negative breast adenocarcinoma), A2058 (human melanoma), U87 (human glioblastoma), PATU 8902 (pancreas adenocarcinoma), and A549 (human lung adenocarcinoma) were cultured in a DMEM medium (Biosera, Kansas City, MO, USA). The media were supplemented with 10% fetal bovine serum (FBS) (Invitrogen, Carlsbad, CA, USA) and 1× HyClone™ Antibiotic/Antimycotic Solution (GE Healthcare, Piscataway, NJ, USA).
as §2

HeLa = assay: MTT assay, HeLa; assay type: cell-based, human; details: cervical adenocarcinoma, 48 h incubation
Protocol: as §3, §2

A2058 = assay: MTT assay, A2058; assay type: cell-based; details: human melanoma, 48 h incubation
Protocol: as §3, §2

Hep G2 = assay: MTT assay, Hep G2; assay type: cell-based, human; details: hepatocellular carcinoma, 48 h incubation
Protocol: as §3, §2

HCT116 = assay: MTT assay, HCT116; assay type: cell-based, human; details: colorectal adenocarcinoma, 48 h incubation
Protocol: as §3, §2

A549 = assay: MTT assay, A549; assay type: cell-based, human; details: lung adenocarcinoma, 48 h incubation
Protocol: as §3, §2

A2780 = assay: MTT assay, A2780; assay type: cell-based, human; details: ovarian adenocarcinoma, 48 h incubation
Protocol: as §3, §2

SMILES	IC50 (MCF-10A) [µM]	IC50 (Bj-5ta) [µM]	IC50 (PATU) [µM]	IC50 (HeLa) [µM]	IC50 (A2058) [µM]	IC50 (Hep G2) [µM]	IC50 (HCT116) [µM]	IC50 (A549) [µM]	IC50 (A2780) [µM]
COc1cc(NC(=O)COc2ccc(/C=C3\SC(=O)N(Cc4c5ccccc5nc5ccccc45)C3=O)cc2OC)cc(OC)c1 [12b·2HCl, 2-(4-{[(5Z)-3-[(Acridin-9-yl)methyl]-2,4-dioxo-1,3-thiazolidin-5-ylidene]methyl}-2-methoxyphenoxy)-N-(3,5-dimethoxyphenyl)acetamide dihydrochloride]	12.4 ± 1.9	29.6 ± 4.4	> 50	11.9 ± 7.4	> 50	> 50	27.3 ± 3.75	> 50	15 ± 1.4
COc1cc(/C=C2\SC(=O)N(Cc3c4ccccc4nc4ccccc34)C2=O)ccc1OCC(=O)Nc1ccccc1C(F)(F)F [12e·2HCl, 2-(4-{[(5Z)-3-[(Acridin-9-yl)methyl]-2,4-dioxo-1,3-thiazolidin-5-ylidene]methyl}-2-methoxyphenoxy)-N-[2-(trifluoromethyl)phenyl]acetamide dihydrochloride]	> 50	> 50	> 50	13.2 ± 4.9	> 50	> 50	29.2 ± 3.7	> 50	> 50
COc1cc(NC(=O)COc2ccc(/C=C3\SC(=O)N(Cc4cccc5cc6ccccc6nc45)C3=O)cc2OC)cc(OC)c1 [13b·HCl, 2-(4-{[(5Z)-3-[(Acridin-4-yl)methyl]-2,4-dioxo-1,3-thiazolidin-5-ylidene]methyl}-2-methoxyphenoxy)-N-(3,5-dimethoxyphenyl)acetamide hydrochloride]	–	> 50	> 50	45.5 ± 2.9	> 50	> 50	> 50	> 50	–
COc1cc(/C=C2\SC(=O)N(Cc3cccc4cc5ccccc5nc34)C2=O)ccc1OCC(=O)Nc1cccc(C(F)(F)F)c1 [13f·HCl, 2-(4-{[(5Z)-3-[(Acridin-4-yl)methyl]-2,4-dioxo-1,3-thiazolidin-5-ylidene]methyl}-2-methoxyphenoxy)-N-[3-(trifluoromethyl)phenyl]acetamide hydrochloride]	–	> 50	43.7 ± 5.8	12.3 ± 4.9	> 50	> 50	14.3 ± 3.2	38.2 ± 7.35	–
COc1cc(/C=C2\SC(=O)N(Cc3c4ccccc4nc4ccccc34)C2=O)ccc1OCC(=O)Nc1ccccc1 [Compound 12a·2HCl, 2-(4-{[(5Z)-3-[(Acridin-9-yl)methyl]-2,4-dioxo-1,3-thiazolidin-5-ylidene]methyl}-2-methoxyphenoxy)-N-phenylacetamide dihydrochloride]	19.3 ± 1.1	35.5 ± 4.5	> 50	18.2 ± 5.1	> 50	> 50	6.55 ± 1.65	> 50	15 ± 1.35
O=C(COc1ccc(/C=C2\SC(=O)N(Cc3cccc4cc5ccccc5nc34)C2=O)cc1)Nc1ccccc1C(F)(F)F [8e·HCl, 2-(4-{[(5Z)-3-[(Acridin-4-yl)methyl]-2,4-dioxo-1,3-thiazolidin-5-ylidene]methyl}phenoxy)-N-[2-(trifluoromethyl)phenyl]acetamid hydrochloride]	–	> 50	> 50	> 50	> 50	> 50	> 50	> 50	–
COc1cc(NC(=O)COc2ccc(/C=C3\SC(=O)N(Cc4cccc5cc6ccccc6nc45)C3=O)cc2)cc(OC)c1 [8b·HCl, 2-(4-{[(5Z)-3-[(Acridin-4-yl)methyl]-2,4-dioxo-1,3-thiazolidin-5-ylidene]methyl}phenoxy)-N-(3,5-dimethoxyphenyl)acetamide hydrochloride]	> 50	> 50	> 50	47.9 ± 1.4	> 50	> 50	32.4 ± 6.3	> 50	> 50
COc1cc(/C=C2\SC(=O)N(Cc3cccc4cc5ccccc5nc34)C2=O)ccc1OCC(=O)Nc1cc(C(F)(F)F)cc(C(F)(F)F)c1 [13g·HCl, 2-(4-{[(5Z)-3-[(Acridin-4-yl)methyl]-2,4-dioxo-1,3-thiazolidin-5-ylidene]methyl}-2-methoxyphenoxy)-N-[3,5-bis(trifluoromethyl)phenyl]acetamide hydrochloride]	–	> 50	> 50	34.7 ± 6.4	> 50	> 50	> 50	> 50	–
O=C(COc1ccc(/C=C2\SC(=O)N(Cc3cccc4cc5ccccc5nc34)C2=O)cc1)Nc1ccccc1 [8a·HCl, 2-(4-{[(5Z)-3-[(Acridin-4-yl)methyl]-2,4-dioxo-1,3-thiazolidin-5-ylidene]methyl}phenoxy)-N-phenylacetamide hydrochloride]	–	> 50	> 50	42.6 ± 0.75	> 50	> 50	> 50	> 50	–
O=C(COc1ccc(/C=C2\SC(=O)N(Cc3cccc4cc5ccccc5nc34)C2=O)cc1)Nc1ccc([N+](=O)[O-])cc1 [8d·HCl, 2-(4-{[(5Z)-3-[(Acridin-4-yl)methyl]-2,4-dioxo-1,3-thiazolidin-5-ylidene]methyl}phenoxy)-N-(4-nitrophenyl)acetamide hydrochloride]	–	> 50	> 50	> 50	> 50	> 50	> 50	> 50	–
COc1cc(/C=C2\SC(=O)N(Cc3cccc4cc5ccccc5nc34)C2=O)ccc1OCC(=O)Nc1ccccc1 [13a·HCl, 2-(4-{[(5Z)-3-[(Acridin-4-yl)methyl]-2,4-dioxo-1,3-thiazolidin-5-ylidene]methyl}-2-methoxyphenoxy)-N-phenylacetamide hydrochloride]	–	> 50	> 50	> 50	> 50	> 50	> 50	> 50	–
COc1cc(/C=C2\SC(=O)N(Cc3cccc4cc5ccccc5nc34)C2=O)ccc1OCC(=O)Nc1ccccc1C(F)(F)F [13e·HCl, 2-(4-{[(5Z)-3-[(Acridin-4-yl)methyl]-2,4-dioxo-1,3-thiazolidin-5-ylidene]methyl}-2-methoxyphenoxy)-N-[2-(trifluoromethyl)phenyl]acetamide hydrochloride]	–	> 50	39.8 ± 7.1	13.7 ± 4.5	> 50	> 50	14.5 ± 3.4	42.8 ± 5.4	–
O=C(COc1ccc(/C=C2\SC(=O)N(Cc3cccc4cc5ccccc5nc34)C2=O)cc1)Nc1cccc(C(F)(F)F)c1 [8f·HCl, 2-(4-{[(5Z)-3-[(Acridin-4-yl)methyl]-2,4-dioxo-1,3-thiazolidin-5-ylidene]methyl}phenoxy)-N-[3-(trifluoromethyl)phenyl]acetamide hydrochloride]	–	> 50	> 50	> 50	> 50	> 50	> 50	> 50	–
COc1cc(/C=C2\SC(=O)N(Cc3cccc4cc5ccccc5nc34)C2=O)ccc1OCC(=O)Nc1ccc([N+](=O)[O-])cc1 [13d·HCl, 2-(4-{[(5Z)-3-[(Acridin-4-yl)methyl]-2,4-dioxo-1,3-thiazolidin-5-ylidene]methyl}-2-methoxyphenoxy)-N-(4-nitrophenyl)acetamide hydrochloride]	–	> 50	> 50	> 50	> 50	> 50	> 50	> 50	–
